Here are results for 29 compounds from US9914730B2, “Azaquinazoline inhibitors of Atypical protein Kinase C” (Ignyta, Inc., priority 2012, dated 2018).

This test has as its target T1, full-length human PKCι (Homo sapiens, UniProt P41743).
T1 construct: Recombinant, full-length human PKCι expressed in Sf21 insect cells is also commercially available; purchased; host or cells: Sf21 insect cells
T1 sequence (P41743 1-596): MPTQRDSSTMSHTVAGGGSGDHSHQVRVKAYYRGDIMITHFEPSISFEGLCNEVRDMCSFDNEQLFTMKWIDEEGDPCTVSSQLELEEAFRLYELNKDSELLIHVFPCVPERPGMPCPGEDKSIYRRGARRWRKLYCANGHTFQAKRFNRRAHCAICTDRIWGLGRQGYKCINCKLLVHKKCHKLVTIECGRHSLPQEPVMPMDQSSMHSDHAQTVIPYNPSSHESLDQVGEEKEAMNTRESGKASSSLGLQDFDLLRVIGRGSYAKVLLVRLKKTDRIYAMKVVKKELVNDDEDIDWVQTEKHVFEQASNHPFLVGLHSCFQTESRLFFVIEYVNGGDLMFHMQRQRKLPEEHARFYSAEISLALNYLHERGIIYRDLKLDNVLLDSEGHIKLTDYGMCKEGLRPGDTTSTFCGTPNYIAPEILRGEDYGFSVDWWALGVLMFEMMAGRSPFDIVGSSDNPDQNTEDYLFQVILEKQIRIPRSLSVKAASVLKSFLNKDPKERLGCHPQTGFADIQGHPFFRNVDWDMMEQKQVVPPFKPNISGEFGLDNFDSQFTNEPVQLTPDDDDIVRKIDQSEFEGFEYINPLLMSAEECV
Nature of the test: PKCι IC50 IMAP assay, full-length PKCι at 150 μM ATP. Format: biochemical. The settings on record: read-out: IC50 in IMAP assay against full length PKCi at 150 μM ATP. The method, boiled down:
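IMAP fluorescence polarisation (ex 485/em 530 nm) read-out; % inhibition set from no-compound (0%) and no-enzyme (100%) controls, IC50 from dose-response curve fit. Sf21-expressed full-length enzyme ~15 pM, 100 nM FAM peptide, ATP 150 μM (5× KM^APP), 60 min at RT.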

On to `COc1cncc2nc(-c3ccnc(Nc4cccc(CC(N)=O)c4)c3)nc(N[C@@H]3CCNC3)c12` [Example 324, 2-(3-{4-[5-Methoxy-4-((R)-pyrrolidin-3-ylamino)-pyrido[3,4-d]pyrimidin-2-yl]-pyridin-2-ylamino}-phenyl)-acetamide], for which the IC50 is < 100 nM.

`Fc1ccc(Nc2cc(-c3nc(N4CCNCC4)c4c(Cl)cncc4n3)ccn2)nc1` [Example 258, [4-(5-Chloro-4-piperazin-1-yl-pyrido[3,4-d]pyrimidin-2-yl)-pyridin-2-yl]-(5-fluoro-pyridin-2-yl)-amine]: the IC50 is < 100 nM.

Turning to `CC1(C)CN(c2nc(-c3ccnc4[nH]c(C(C)(C)C)cc34)nc3cncc(C4CC4)c23)CCN1` [Example 2002, 2-(2-tert-Butyl-1H-pyrrolo[2,3-b]pyridin-4-yl)-5-cyclopropyl-4-(3,3-dimethyl-piperazin-1-yl)-pyrido[3,4-d]pyrimidine], the IC50 was < 100 nM.

Take `Fc1cccc(F)c1Nc1cc(-c2nc(N[C@@H]3CCNC3)c3c(C4CC4)cncc3n2)ccn1` [Example 2035, {5-Cyclopropyl-2-[2-(2,6-difluoro-phenylamino)-pyridin-4-yl]-pyrido[3,4-d]pyrimidin-4-yl}-(R)-pyrrolidin-3-yl-amine]: the half-maximal inhibitory concentration (IC50) is < 100 nM.

For `N#C[C@H]1CN(c2nc(-c3ccnc(Nc4c(F)cccc4F)c3)nc3cncc(C4CC4)c23)CCN1` [Example 788, (R)-4-{5-Cyclopropyl-2-[2-(2,6-difluoro-phenylamino)-pyridin-4-yl]-pyrido[3,4-d]pyrimidin-4-yl}-piperazine-2-carbonitrile], the IC50 fell in the range of 100 to 1000 nM.

For `COc1cncc2nc(-c3ccncc3)nc(N3CC[C@H](O)C3)c12` [Example 50, (3S)-1-[5-methoxy-2-(pyridin-4-yl)-pyrido[3,4-d]-pyrimidin-4-yl]-pyrrolidin-3-ol], the half-inhibitory concentration (IC50) was 10000 to 40000 nM.

As to `CN1CCN(c2nc(-c3ccncc3)nc3cnccc23)CC1` [Example 18, 1-methyl-4-[2-(pyridin-4-yl)-pyrido[3,4-d]-pyrimidin-4-yl]-piperazine], the IC50 was 10000 to 40000 nM.

For `C[C@@H](Nc1cc(-c2nc(N3CCNCC3)c3c(C4CC4)cncc3n2)ccn1)c1ccc2ccccc2c1` [Example 2160, [4-(5-Cyclopropyl-4-piperazin-1-yl-pyrido[3,4-d]pyrimidin-2-yl)-pyridin-2-yl]-((R)-1-naphthalen-2-yl-ethyl)-amine], the IC50 is < 100 nM.

As to `COc1cncc2nc(-c3ccnc(Nc4cccc(C(F)(F)F)c4)c3)nc(N3CCNCC3)c12` [Example 446, [4-(5-Methoxy-4-piperazin-1-yl-pyrido[3,4-d]pyrimidin-2-yl)-pyridin-2-yl]-(3-trifluoromethyl-phenyl)-amine], the half-inhibitory concentration (IC50) is 100 to 1000 nM.

As for `FC(F)(F)c1ccccc1Nc1cc(-c2nc(N3CCNCC3)c3c(C4CC4)cncc3n2)ccn1` [Example 516, [4-(5-Cyclopropyl-4-piperazin-1-yl-pyrido[3,4-d]pyrimidin-2-yl)-pyridin-2-yl]-(2-trifluoromethyl-phenyl)-amine], the 50% inhibitory concentration (IC50) was < 100 nM.

Regarding `CC(C)(O)C#Cc1nccc2c(NCC(N)Cc3ccccc3)nc(-c3ccncc3)nc12` (stereo in doubt) [Example 131, 4-(4-{[(2S)-2-amino-3-phenylpropyl]amino}-2-(pyridin-4-yl)pyrido[3,4-d]pyrimidin-8-yl)-2-methylbut-3-yn-2-ol], the IC50 was < 100 nM.

For the compound `CNc1cc(-c2nc(N3CCNCC3)c3c(OC)cncc3n2)ccn1` [Example 213, [4-(5-Methoxy-4-piperazin-1-yl-pyrido[3,4-d]pyrimidin-2-yl)-pyridin-2-yl]-methyl-amine], the half-inhibitory concentration (IC50) was 100 to 1000 nM.

Regarding `Cc1ccccc1-c1nccc2c(NC[C@@H](N)Cc3ccccc3)nc(-c3ccncc3)nc12` [Example 118, N-[(2S)-2-amino-3-phenylpropyl]-8-(2-methyl-phenyl)-2-(pyridin-4-yl)-pyrido[3,4-d]-pyrimidin-4-amine], the 50% inhibitory concentration (IC50) is 1000 to 10000 nM.

Consider `c1ccc(C[C@@H]2CNCCN2c2nc(-c3ccncc3)nc3cnccc23)cc1` [Example 29, (2R)-2-benzyl-1-[2-(pyridin-4-yl)-pyrido[3,4-d]-pyrimidin-4-yl]-piperazine], for which the 50% inhibitory concentration (IC50) was in the range of 1000 to 10000 nM.

Turning to `c1cc(-c2nc(N3CCNCC3)c3c(C4CCC4)cncc3n2)c2cc[nH]c2n1` [Example 2082, 5-Cyclobutyl-4-piperazin-1-yl-2-(1H-pyrrolo[2,3-b]pyridin-4-yl)-pyrido[3,4-d]pyrimidine], the IC50 is < 100 nM.

Turning to `CN(c1nc(-c2ccnc(Nc3nc(F)cc(F)c3F)c2)nc2cncc(C3CC3)c12)C1CCNCC1` [Example 2019, {5-Cyclopropyl-2-[2-(3,4,6-trifluoro-pyridin-2-ylamino)-pyridin-4-yl]-pyrido[3,4-d]pyrimidin-4-yl}-methyl-piperidin-4-yl-amine], the 50% inhibitory concentration (IC50) was < 100 nM.

Take `CC1CN(c2nc(-c3ccnc(Nc4c(F)cccc4F)c3)nc3cncc(C4CC4)c23)CC(C)N1` (centres unmarked) [Example 787, {4-[5-Cyclopropyl-4-(3,5-dimethyl-piperazin-1-yl)-pyrido[3,4-d]pyrimidin-2-yl]-pyridin-2-yl}-(2,6-difluoro-phenyl)-amine]: the half-inhibitory concentration (IC50) was < 100 nM.

For `Cc1ccncc1Nc1cc(-c2nc(N3CCNCC3)c3c(C4CC4)cncc3n2)ccn1` [Example 478, [4-(5-Cyclopropyl-4-piperazin-1-yl-pyrido[3,4-d]pyrimidin-2-yl)-pyridin-2-yl]-(4-methyl-pyridin-3-yl)-amine], the half-maximal inhibitory concentration (IC50) is < 100 nM.

With `COc1cncc2nc(-c3ccnc(Nc4ccccc4)c3)nc(N3CCC(O)C(CO)C3)c12` (centres unmarked) [Example 443, 3-Hydroxymethyl-1-[5-methoxy-2-(2-phenylamino-pyridin-4-yl)-pyrido[3,4-d]pyrimidin-4-yl]-piperidin-4-ol], the IC50 lay within 1000 to 10000 nM.

For the compound `CC1(C)CNCCC1Nc1nc(-c2ccnc(Nc3ncc(F)cc3F)c2)nc2cncc(C3CC3)c12` (centres unmarked) [Example 2175, {5-Cyclopropyl-2-[2-(3,5-difluoro-pyridin-2-ylamino)-pyridin-4-yl]-pyrido[3,4-d]pyrimidin-4-yl}-(3,3-dimethyl-piperidin-4-yl)-amine], the concentration for half-maximal inhibition (IC50) is < 100 nM.

Turning to `Fc1ccc(Nc2cc(-c3nc(N4CCNCC4)c4c(C5CC5)cncc4n3)ccn2)cc1` [Example 594, [4-(5-Cyclopropyl-4-piperazin-1-yl-pyrido[3,4-d]pyrimidin-2-yl)-pyridin-2-yl]-(4-fluoro-phenyl)-amine], the half-inhibitory concentration (IC50) is < 100 nM.

Regarding `Cc1ccccc1Nc1cc(-c2nc(N3CCNCC3)c3c(C4CC4)cncc3n2)ccn1` [Example 486, [4-(5-Cyclopropyl-4-piperazin-1-yl-pyrido[3,4-d]pyrimidin-2-yl)-pyridin-2-yl]-o-tolyl-amine], the 50% inhibitory concentration (IC50) was < 100 nM.

On to `C[C@H]1CN(c2nc(-c3ccnc4[nH]c(C(C)(C)C)cc34)nc3cncc(C4CCC4)c23)CCN1` [Example 2008, 2-(2-tert-Butyl-1H-pyrrolo[2,3-b]pyridin-4-yl)-5-cyclobutyl-4-((S)-3-methyl-piperazin-1-yl)-pyrido[3,4-d]pyrimidine], for which the concentration for half-maximal inhibition (IC50) is < 100 nM.

On to `c1cc(-c2nc(N[C@@H]3CCOC3)c3ccncc3n2)ccn1` [Example 42, N-[(3R)-oxolan-3-yl]-2-(pyridin-4-yl)-pyrido[3,4-d]-pyrimidin-4-amine], for which the IC50 was in the range of 10000 to 40000 nM.

Regarding `CC1(C)CN(c2nc(-c3ccnc4[nH]c(C(F)(F)F)cc34)nc3cncc(C4CC4)c23)CCN1` [Example 1251, 5-Cyclopropyl-4-(3,3-dimethyl-piperazin-1-yl)-2-(2-trifluoromethyl-1H-pyrrolo[2,3-b]pyridin-4-yl)-pyrido[3,4-d]pyrimidine], the 50% inhibitory concentration (IC50) was < 100 nM.

For the compound `FC(F)(F)c1cnnc(Nc2cc(-c3nc(N4CCNCC4)c4c(C5CC5)cncc4n3)ccn2)c1` [Example 565, [4-(5-Cyclopropyl-4-piperazin-1-yl-pyrido[3,4-d]pyrimidin-2-yl)-pyridin-2-yl]-(5-trifluoromethyl-pyridazin-3-yl)-amine], the IC50 was < 100 nM.

Turning to `c1ccc(C[C@H]2CN(c3nc(-c4ccncc4)nc4cnccc34)CCN2)cc1` [Example 16, (3S)-3-benzyl-1-[2-(pyridin-4-yl)pyrido[3,4-d]-pyrimidin-4-yl]-piperazine], the IC50 lay within 100 to 1000 nM.

Turning to `CC(=O)Nc1cc(-c2nc(N3CCNC(CC(F)(F)F)C3)c3c(C4CC4)cncc3n2)ccn1` (centres unmarked) [Example 626, N-(4-{5-Cyclopropyl-4-[3-(2,2,2-trifluoro-ethyl)-piperazin-1-yl]-pyrido[3,4-d]pyrimidin-2-yl}-pyridin-2-yl)-acetamide], the 50% inhibitory concentration (IC50) was < 100 nM.

Turning to `Fc1cccc(F)c1Nc1cc(-c2nc(N3CCNC(CC(F)(F)F)C3)c3c(C4CC4)cncc3n2)ccn1` (centres unmarked) [Example 642, (4-{5-Cyclopropyl-4-[3-(2,2,2-trifluoro-ethyl)-piperazin-1-yl]-pyrido[3,4-d]pyrimidin-2-yl}-pyridin-2-yl)-(2,6-difluoro-phenyl)-amine], the 50% inhibitory concentration (IC50) was 100 to 1000 nM.
